Measured values as given in ChEMBL document CHEMBL5523682, “The formyl peptide receptors FPR1 and FPR2 as targets for inflammatory disorders: recent advances in the development of small-molecule agonists” (Eur J Med Chem, 2024).
Each block holds one compound with its values, some of them ahead of it. Where a SMILES comes first, the peptide text is derived from it. The star is where a group is joined. For = O=C*

What was measured:
[1] = biological target: T1, N-formyl peptide receptor 2 (Homo sapiens, UniProt P25090); test: Agonist activity at FPR2 (unknown origin) transfected in CHO cells by cAMP assay; assay type: functional, cell-based
T1 sequence (P25090 whole entry): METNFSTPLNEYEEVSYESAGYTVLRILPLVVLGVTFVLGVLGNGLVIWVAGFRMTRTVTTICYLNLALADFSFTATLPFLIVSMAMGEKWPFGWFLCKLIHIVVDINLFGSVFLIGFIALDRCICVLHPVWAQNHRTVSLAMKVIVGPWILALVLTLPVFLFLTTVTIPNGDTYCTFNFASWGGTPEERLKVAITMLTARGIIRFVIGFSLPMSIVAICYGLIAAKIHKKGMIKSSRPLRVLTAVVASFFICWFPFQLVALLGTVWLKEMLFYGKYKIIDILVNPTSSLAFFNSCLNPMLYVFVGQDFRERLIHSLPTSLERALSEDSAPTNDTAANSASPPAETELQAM

fMet-Leu-Phe receptor [2] = biological target: T2, fMet-Leu-Phe receptor (Homo sapiens, UniProt P21462); test: Agonist activity at FPR1 (unknown origin) transfected in CHO cells by cAMP assay; assay type: functional, cell-based
T2 sequence (P21462 whole entry): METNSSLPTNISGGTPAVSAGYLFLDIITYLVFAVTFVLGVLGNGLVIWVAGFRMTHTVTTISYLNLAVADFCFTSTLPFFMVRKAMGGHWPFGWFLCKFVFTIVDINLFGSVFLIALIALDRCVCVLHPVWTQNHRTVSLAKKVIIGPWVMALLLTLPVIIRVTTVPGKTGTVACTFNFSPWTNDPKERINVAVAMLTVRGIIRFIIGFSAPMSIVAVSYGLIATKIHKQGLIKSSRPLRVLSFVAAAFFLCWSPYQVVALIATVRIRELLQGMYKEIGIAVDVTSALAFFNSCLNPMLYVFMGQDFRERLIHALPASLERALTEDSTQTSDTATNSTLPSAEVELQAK

[3] = Metabolic stability in rat liver microsomes assessed as compound remaining after 30 mins incubation; assay type: ADME, Microsome; settings: read-out: Stability
fMet-Leu-Phe receptor [4] = biological target: T3, fMet-Leu-Phe receptor (Mus musculus, UniProt P33766); test: Binding affinity to mouse FPR1 expressed in CHO cells assessed as dissociation constant; assay type: cell-based
T3 sequence (P33766 whole entry): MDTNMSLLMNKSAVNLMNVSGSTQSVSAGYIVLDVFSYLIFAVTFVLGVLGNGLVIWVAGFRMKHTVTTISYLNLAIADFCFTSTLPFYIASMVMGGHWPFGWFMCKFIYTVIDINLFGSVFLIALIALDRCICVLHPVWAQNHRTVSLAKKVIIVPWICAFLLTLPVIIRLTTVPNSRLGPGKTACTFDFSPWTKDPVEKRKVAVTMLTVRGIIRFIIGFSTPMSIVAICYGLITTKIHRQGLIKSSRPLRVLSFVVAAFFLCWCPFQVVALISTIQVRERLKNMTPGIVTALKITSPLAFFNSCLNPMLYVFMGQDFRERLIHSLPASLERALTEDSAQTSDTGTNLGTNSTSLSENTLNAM

[5] = biological target: T1, N-formyl peptide receptor 2; test: Binding affinity to human FPR2 expressed in CHO cells assessed as dissociation constant; assay type: cell-based
[6] = Half life in rat liver microsomes measured upto 60 mins by LC-MS/MS analysis; assay type: ADME, Microsome; settings: 1 h
[7] = Intrinsic clearance in rat liver microsomes; assay type: ADME, Microsome
fMet-Leu-Phe receptor [8] = biological target: T2, fMet-Leu-Phe receptor; test: Agonist activity against human FPR1 expressed in HL-60 cells by Fluo4-AM dye based intracellular calcium flux assay; assay type: functional, cell-based
[9] = biological target: T1, N-formyl peptide receptor 2; test: Agonist activity at human FPR2 expressed in HL-60 cells by Fluo4-AM dye based intracellular calcium flux assay; assay type: functional, cell-based
[10] = biological target: T1, N-formyl peptide receptor 2; test: Agonist activity at FPR2 (unknown origin) transfected in CHO cells assessed as increase in calcium mobilization by Fluo-4AM dye based assay; assay type: functional, cell-based
fMet-Leu-Phe receptor [11] = biological target: T2, fMet-Leu-Phe receptor; test: Agonist activity at FPR1 (unknown origin) transfected in CHO cells assessed as increase in calcium mobilization by Fluo-4AM dye based assay; assay type: functional, cell-based
[12] = biological target: T1, N-formyl peptide receptor 2; test: Agonist activity at FPR2 (unknown origin) in HEK293 cells; assay type: functional, cell-based
[13] = Oral bioavailability in human at 1 mg/kg; assay type: ADME, organism-based; settings: in vivo
[14] = biological target: T1, N-formyl peptide receptor 2; test: Agonist activity at FPR2 (unknown origin) expressed in CHO cells assessed as Calcium mobilization incubated for 30 min by fluorometry method; assay type: functional, cell-based
fMet-Leu-Phe receptor [15] = biological target: T2, fMet-Leu-Phe receptor; test: Agonist activity at FPR1 (unknown origin) transfected in human HL60 cells assessed as calcium mobilization incubated for 30 mins and measured for 15 mins by fluorometry method; assay type: functional, cell-based, HL-60
[16] = Permeability of compound in PBS buffer at pH 5.5 by UPLC-MS spectrometry based PAMPA assay; assay type: ADME; settings: read-out: permeability
[17] = biological target: T4, Formyl peptide receptor 2 (Mus musculus, UniProt O88536); test: Agonist activity at mouse FPR2
T4 sequence (O88536 whole entry): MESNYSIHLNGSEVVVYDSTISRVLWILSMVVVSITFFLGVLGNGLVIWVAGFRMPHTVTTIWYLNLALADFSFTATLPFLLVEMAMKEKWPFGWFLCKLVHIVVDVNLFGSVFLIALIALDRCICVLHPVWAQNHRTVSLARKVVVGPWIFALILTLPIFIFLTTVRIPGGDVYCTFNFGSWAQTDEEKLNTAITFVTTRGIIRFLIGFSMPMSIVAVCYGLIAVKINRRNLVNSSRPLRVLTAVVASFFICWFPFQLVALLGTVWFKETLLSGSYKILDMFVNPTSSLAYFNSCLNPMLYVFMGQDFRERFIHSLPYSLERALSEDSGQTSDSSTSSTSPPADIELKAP

fMet-Leu-Phe receptor [18] = biological target: T2, fMet-Leu-Phe receptor; test: Agonist activity at human FPR1; assay type: functional
fMet-Leu-Phe receptor [19] = biological target: T3, fMet-Leu-Phe receptor; test: Agonist activity at mouse FPR1; assay type: functional
[20] = biological target: T1, N-formyl peptide receptor 2; test: Agonist activity at human FPR2; assay type: functional

Kd (fMet-Leu-Phe receptor [4]): 1.5 nM | Kd [5]: 1.7 nM
Compound: CCCCC[C@H](O)[C@H](O)/C=C/C=C/C=C\C=C\[C@@H](O)CCCC(=O)O

t1/2 [6]: 48 min | CLH [7]: 15 µL/min/mg
Compound: N#Cc1ccc(C[C@H](NC(=O)Nc2ccc(F)cc2)C(=O)NCC2(c3ccc(F)c(Cl)c3)CC2)cc1

EC50 [10]: 600 nM | EC50 (fMet-Leu-Phe receptor [11]): 2300 nM
Compound: CC(C)C[C@H](NC(=O)CNC(=O)Nc1ccc(Br)cc1)C(=O)OC(C)(C)C

EC50 [12]: 2 nM | bioavailability [13]: 12%
Compound: O=C(NCc1ccc(Br)cc1F)[C@@H]1C2CCC([C@H]1C(=O)NC1CCNCC1F)C21CC1 (stereo partly drawn)

EC50 [1]: 10 nM | EC50 (fMet-Leu-Phe receptor [2]): 470 nM | Papp [16]: 110 ×10⁻⁶ cm/s
Compound: COc1cc(F)c([C@@H]2CNC(=O)[C@H]2Nc2cc(-c3ccc(Cl)cc3)no2)c(F)c1

Second part, the compound before the results:

Compound: O=C(Nc1ccc(Br)cc1)[C@@H]1C2CCC([C@@H]1C(=O)O)C21CC1 (stereo partly drawn)
EC50 [1]: 280 nM | EC50 (fMet-Leu-Phe receptor [2]): 2200 nM

Compound: N#Cc1ccc(C[C@@H](NC(=O)Nc2ccc(F)cc2)C(=O)NCC2(c3ccc(F)c(Cl)c3)CC2)cc1
remaining at 0.5 h [3]: 20%

Compound: COc1cccc(Cc2cc(C)nn(CC(=S)Nc3ccccc3)c2=O)c1
EC50 (fMet-Leu-Phe receptor [8]): > 50000 nM | EC50 [9]: > 50000 nM

Compound: Ac-AMVSEFLKQAWIENEEQEYVVQTVK-OH
EC50 [14]: 1800 nM | EC50 (fMet-Leu-Phe receptor [15]): 1400 nM

Compound: CC[C@H](C)[C@H](NC(=O)[C@@H](NC(=O)[C@H](Cc1ccccc1)NC(=O)[C@H](CC(C)C)NC(=O)[C@H](CCSC)NC=O)[C@@H](C)CC)C(=O)O (For-MLFII-OH)
EC50 [17]: 910 nM | EC50 (fMet-Leu-Phe receptor [18]): 1400 nM | EC50 (fMet-Leu-Phe receptor [19]): 0.03 nM | EC50 [20]: 3.8 nM

Compound: O=C(NCc1ccc(Br)cc1F)[C@@H]1C2CCC([C@H]1C(=O)NC1CCNCC1)C21CC1 (stereo partly drawn)
bioavailability [13]: 0.3%
